Source: US12264134B2 (Merck Sharp & Dohme LLC, priority 2018, dated 2025)

What was measured:
IDO1 [1] = biological target: T1, IDO1 (Homo sapiens, UniProt P14902); test: IDO1 Cellular Assay in HeLa Cells Stimulated with IFNγ; format: cell-based; settings: read-out: HeLa Cell Potency, IC50
IDO1 [2] = biological target: T1, IDO1; test: IDO1 Human Whole blood Assay; format: cell-based; parameters: Human whole blood was drawn in sodium heparin coated tubes from healthy internal donors; from tissue; host or cells: human whole blood from healthy donors, stimulated with LPS and IFNγ; settings: LPS and IFNγ stimulated, 18 h, read-out: Human Whole Blood Potency, IC50
Description: IDO1Human Whole blood Assay
Compounds to be tested were serially diluted in ten 3-fold steps in DMSO starting from 10 mM. 3 μL of compound dilutions or DMSO alone were then dispensed from the dilution plate into a polypropylene 96-well assay plate containing 97 μL of RPMI medium using an Echo 555 acoustic liquid handler (Labcyte). LPS and IFNγ was prepared in RPMI medium to a 10× of final conc. (1000 ng/mL), final concentration is 100 ng/mL.
Human whole blood was drawn in sodium heparin coated tubes from healthy internal donors. 240 μL of blood was transferred to each of the wells of a v-bottom 96 well plate. 30 μL of compound was transferred from intermediate dilution plate, and incubated for 15 min. 30 μL from stimulants was then transferred to blood and mixed thoroughly. Plate was covered with breathable membrane and incubated at 37° C. for overnight (18 h).
On day 2, isotope labeled standard solutions of kynurenine and tryptophan was made in water at 10× concentration and 30 μL was added to the blood at 3 μM final concentration. The assay plates were centrifuged at 300×G for 10 min with no brake to separate plasma from red blood cells. 60 μL of plasma samples was removed without disturbing red blood cells. Plasma was diluted with RPMI in 1:1 ratio and proteins were precipitated out with two volumes of Acetonitrile. The plates were centrifuged at 4000×G for 60 min. 20 μL of supernatant was carefully transferred to a 384 well plate containing 40 μL of 0.1% formic acid in water and analyzed by LC/MS/MS.
LC/MS/MS analyses were performed using Thermo Fisher's LX4-TSQ Quantum Ultra system. This system consists of four Agilent binary high-performance liquid chromatography (HPLC) pumps and a TSQ Quantum Ultra triple quadrupole MS/MS instrument. For each sample, 5 μL were injected onto an Atlantis T3 column (2.1 mm×150 mm, 3 μm particle size) from Waters. The mobile phase gradient pumped at 0.8 mL/min was used to elute the analytes from the column at 25° C. The elution started at 0% B increasing linearly to 25% B at 6.5 min, holding at 25% for 1 min, re-equilibrating to 10 min. Mobile phase A consisted of 0.1% formic acid in water. Mobile phase B consisted of 0.1% of formic acid in acetonitrile. Data were acquired in positive mode using a HESI interface. The operational parameters for the TSQ Quantum Ultra instrument were a spray voltage of 4000 V, capillary temperature of 380° C., vaporizer temperature 400° C., shealth gas 60 arbitrary units, Aux gas 20 arbitrary units, tube lens 85 and collision gas 1.2 mTorr. SRM chromatograms of kynurenine (Q1: 209.2>Q3:94.0) and internal standard (Q1: 215.3>Q3:98.2) were collected for 90 sec. The peak area was integrated by Xcalibur Quan software. The ratios between the kynurenine generated in the reaction and 2D6-Kynurenine spiked-in internal standard were used to generate percentage inhibition and IC50 values. Compounds were titrated and IC50's were calculated by 4 parameter sigmoidal curve fitting formula.

T1 sequence (P14902 whole entry): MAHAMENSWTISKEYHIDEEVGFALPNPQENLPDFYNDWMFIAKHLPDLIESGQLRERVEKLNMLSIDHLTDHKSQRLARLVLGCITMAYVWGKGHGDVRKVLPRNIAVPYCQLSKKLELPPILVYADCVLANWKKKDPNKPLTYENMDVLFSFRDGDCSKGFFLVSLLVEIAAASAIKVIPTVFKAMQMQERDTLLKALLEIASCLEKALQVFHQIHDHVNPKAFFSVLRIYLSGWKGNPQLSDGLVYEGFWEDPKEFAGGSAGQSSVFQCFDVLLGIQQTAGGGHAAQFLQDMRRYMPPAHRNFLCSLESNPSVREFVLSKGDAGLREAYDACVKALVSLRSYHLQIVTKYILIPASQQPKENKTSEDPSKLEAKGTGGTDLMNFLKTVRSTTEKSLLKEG

IC50 (IDO1 [1]) [nM]	IC50 (IDO1 [2]) [nM]	Structure (SMILES)
1.2	154	Cc1cccc(N2CCN(C(=O)Cn3nc(C(=O)N4CC[C@H](O)[C@H](C)C4)c4c3CCC4)CC2)c1C [Example 107, 1-[4-(2,3-dimethylphenyl)piperazin-1-yl]-2-{3-[(3R,4S)-4-hydroxy-3-methylpiperidine-1-carbonyl]-5,6-dihydrocyclopenta[c]pyrazol-1(4H)-yl}ethan-1-one]
1.79	77	Cc1cccc(N2CCN(C(=O)Cn3nc(C(=O)N4CC[C@@H](O)[C@H](C)C4)c4c3CCC4)CC2)c1C [Example 108, 1-[4-(2,3-dimethylphenyl)piperazin-1-yl]-2-{3-[(3R,4R)-4-hydroxy-3-methylpiperidin-1-carbonyl]-5,6-dihydrocyclopenta[c]pyrazol-1(4H)-yl}ethan-1-one]
1.86	399	Cc1cccc(N2CCN(C(=O)Cn3nc(C(=O)N4CC[C@H](O)[C@@H](C)C4)c4c3CCC4)CC2)c1C [Example 109, 1-[4-(2,3-dimethylphenyl)piperazin-1-yl]-2-{3-[(3S,4S)-4-hydroxy-3-methylpiperidine-1-carbonyl]-5,6-dihydrocyclopenta[c]pyrazol-1(4H)-yl}ethan-1-one]
2.97	199	Cc1cccc(N2CCN(C(=O)Cn3nc(C(=O)N4CCC(OCCO)CC4)c4c3CCC4)CC2)c1C [Example 120, 1-[4-(2,3-dimethylphenyl)piperazin-1-yl]-2-{3-[4-(2-hydroxyethoxy)piperidine-1-carbonyl]-5,6-dihydrocyclopenta[c]pyrazol-1(4H)-yl}ethan-1-one]
1.32	877	Cc1cccc(N2CCN(C(=O)Cn3nc(C(=O)N4CCN(S(C)(=O)=O)C[C@@H]4C)c4c3CCC4)CC2)c1C [Example 124, 1-[4-(2,3-dimethylphenyl)piperazin-1-yl]-2-{3-[(2S)-2-methyl-4-(methylsulfonyl)piperazine-1-carbonyl]-5,6-dihydrocyclopenta[c]pyrazol-1(4H)-yl}ethan-1-one]
3.29	444	Cc1cccc(N2CCN(C(=O)Cn3nc(C(=O)N4CC[C@@H](O)C[C@@H]4C)c4c3CCC4)CC2)c1C [Example 125, 1-[4-(2,3-dimethylphenyl)piperazin-1-yl]-2-{3-[(2S,4R)-4-hydroxy-2-methylpiperidine-1-carbonyl]-5,6-dihydrocyclopenta[c]pyrazol-1(4H)-yl}ethan-1-one]
2.61	300	COC1CCN(C(=O)c2nn(CC(=O)N3CCN(c4cccc(C)c4C)CC3)c3c2CCC3)CC1 [Example 126, 1-[4-(2,3-dimethylphenyl)piperazin-1-yl]-2-[3-(4-methoxypiperidine-1-carbonyl)-5,6-dihydrocyclopenta[c]pyrazol-1(4H)-yl]ethan-1-one]
2.36	126	Cc1cccc(N2CCN(C(=O)Cn3nc(C(=O)N4CCN(S(C)(=O)=O)CC4)c4c3CCC4)CC2)c1C [Example 127, 1-[4-(2,3-dimethylphenyl)piperazin-1-yl]-2-{3-[4-(methylsulfonyl)piperazine-1-carbonyl]-5,6-dihydrocyclopenta[c]pyrazol-1(4H)-yl}ethan-1-one]
4.07	192	CC(=O)NC1CCN(C(=O)c2nn(CC(=O)N3CCN(c4cccc(C)c4C)CC3)c3c2CCC3)CC1 [Example 128, N-[1-(1-{2-[4-(2,3-dimethylphenyl)piperazin-1-yl]-2-oxoethyl}-1,4,5,6-tetrahydrocyclopenta[c]pyrazole-3-carbonyl)piperidin-4-yl]acetamide]
3.08	311	Cc1cccc(N2CCN(C(=O)Cn3nc(C(=O)N4CCC(n5ncnn5)CC4)c4c3CCC4)CC2)c1C [Example 129, 1-[4-(2,3-dimethylphenyl)piperazin-1-yl]-2-{3-[4-(2H-tetrazol-2-yl)piperidine-1-carbonyl]-2,6-dihydrocyclopenta[c]pyrazol-1(4H)-yl}ethan-1-one]
3.54	175	Cc1cccc(N2CCN(C(=O)Cn3nc(C(=O)N4CCC(N5CCNC5=O)CC4)c4c3CCC4)CC2)c1C [Example 130, 1-[1-(1-{2-[4-(2,3-dimethylphenyl)piperazin-1-yl]-2-oxoethyl}-1,4,5,6-tetrahydrocyclopenta[c]pyrazole-3-carbonyl)piperidin-4-yl]imidazolidin-2-one]
11.3	360	Cc1cccc(N2CCN(C(=O)Cn3nc(C(=O)N4CCC(O)(CO)CC4)c4c3CCC4)CC2)c1C [Example 141, 1-[4-(2,3-dimethylphenyl)piperazin-1-yl]-2-{3-[4-hydroxy-4-(hydroxymethyl)piperidine-1-carbonyl]-5,6-dihydrocyclopenta[c]pyrazol-1(4H)-yl}ethan-1-one]
1.29	48	Cc1cccc(N2CCN(C(=O)Cn3nc(C(=O)N4CCC(c5cn[nH]c5)CC4)c4c3CCC4)CC2)c1C [Example 142, 1-[4-(2,3-dimethylphenyl)piperazin-1-yl]-2-{3-[4-(1H-pyrazol-4-yl)piperidine-1-carbonyl]-5,6-dihydrocyclopenta[c]pyrazol-1(4H)-yl}ethan-1-one]
2.39	150	Cc1cccc(N2CCN(C(=O)Cn3nc(C(=O)N4CCC5(CCOC5=O)CC4)c4c3CCC4)CC2)c1C [Example 146, 8-(1-{2-[4-(2,3-dimethylphenyl)piperazin-1-yl]-2-oxoethyl}-1,4,5,6-tetrahydrocyclopenta[c]pyrazole-3-carbonyl)-2-oxa-8-azaspiro[4.5]decan-1-one]
2.84	607	Cc1cccc(N2CCN(C(=O)Cn3nc(C(=O)N4CCCC(CO)C4)c4c3CCC4)CC2)c1C (centres unmarked) [Example 147, 1-[4-(2,3-dimethylphenyl)piperazin-1-yl]-2-{3-[3-(hydroxymethyl)piperidine-1-carbonyl]-5,6-dihydrocyclopenta[c]pyrazol-1(4H)-yl}ethan-1-one]
3.34	196	Cc1cccc(N2CCN(C(=O)Cn3nc(C(=O)N4CCN(CC(F)F)CC4)c4c3CCC4)CC2)c1C [Example 157, 2-{3-[4-(2,2-difluoroethyl)piperazine-1-carbonyl]-5,6-dihydrocyclopenta[c]pyrazol-1(4H)-yl}-1-[4-(2,3-dimethylphenyl)piperazin-1-yl]ethan-1-one]
3.06	375	Cc1cccc(N2CCN(C(=O)Cn3nc(C(=O)N4CCN(CC(F)(F)F)CC4)c4c3CCC4)CC2)c1C [Example 158, 1-[4-(2,3-dimethylphenyl)piperazin-1-yl]-2-{3-[4-(2,2,2-trifluoroethyl)piperazine-1-carbonyl]-5,6-dihydrocyclopenta[c]pyrazol-1(4H)-yl}ethan-1-one]
1.65	209	Cc1cccc(N2CCN(C(=O)Cn3nc(C(=O)N4CCC(CCO)CC4)c4c3CCC4)CC2)c1C [Example 160, 1-[4-(2,3-dimethylphenyl)piperazin-1-yl]-2-{3-[4-(2-hydroxyethyl)piperidine-1-carbonyl]-5,6-dihydrocyclopenta[c]pyrazol-1(4H)-yl}ethan-1-one]
2.42	113	Cc1cccc(N2CCN(C(=O)Cn3nc(C(=O)N4CCC(C)(CO)CC4)c4c3CCC4)CC2)c1C [Example 161, 1-[4-(2,3-dimethylphenyl)piperazin-1-yl]-2-{3-[4-(hydroxymethyl)-4-methylpiperidine-1-carbonyl]-5,6-dihydrocyclopenta[c]pyrazol-1(4H)-yl}ethan-1-one]
